pEC50: −log10 of the molar value.
The compounds below were run on HCV genotype 1b replicon (assay: HCV replicon assay (1b_Huh-Luc/Neo-ET cell line, luciferase readout)). Conditions: Hepatitis C virus, Huh-7, 72 h, read-out: Inhibition of HCV genotype 1b.
Type: cell-based
Outline: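 Luciferase activity (Bright-Glo) after 72 h compound exposure, in triplicate, measured replicon levels in Huh 7-derived 1b_Huh-Luc/Neo-ET cells. EC50 was fitted from percent-of-control values and determined in repeat runs.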

SMILES	pEC50
COC(=O)N[C@H](C(=O)N1CCC[C@H]1c1ncc(-c2ccc(-c3ccc4cc(-c5cnc([C@@H]6CCCN6C(=O)[C@H](NC(=O)OC)c6ccccc6)[nH]5)ccc4n3)c(F)c2)[nH]1)C(C)C [compound 119]	> 9.00
COC(=O)N[C@H](C(=O)N1CCC[C@H]1c1ncc(-c2ccc(-c3ccc4cc(-c5cnc([C@@H]6CCCN6C(=O)[C@@H](NC(=O)OC)C6CCOCC6)[nH]5)ccc4n3)c(F)c2)[nH]1)C(C)C [compound 120]	> 9.00
COC(=O)N[C@H](C(=O)N1CCC[C@H]1c1ncc(-c2ccc(-c3ccc4cc(-c5cnc([C@@H]6CCCN6C(=O)[C@H](NC(=O)OC6CCOCC6)c6ccccc6)[nH]5)ccc4n3)c(F)c2)[nH]1)C(C)C [compound 121]	> 9.00
COC(=O)N[C@H](C(=O)N1CCC[C@H]1c1ncc(-c2ccc(-c3ccc4cc(-c5cnc([C@@H]6CCCN6C(=O)[C@H](NC(=O)OC(C)(C)C)c6ccccc6)[nH]5)ccc4n3)c(F)c2)[nH]1)C(C)C [compound 122]	> 9.00
COC(=O)N[C@H](C(=O)N1CCC[C@H]1c1ncc(-c2ccc(-c3ccc4cc(-c5cnc([C@@H]6CCCN6C(=O)[C@@H](NC(=O)OC)C6CCOCC6)[nH]5)ccc4n3)cc2F)[nH]1)C(C)C [compound 123]	> 9.00
COC(=O)N[C@H](C(=O)N1CCC[C@H]1c1ncc(-c2ccc(-c3ccc4cc(-c5cnc([C@@H]6CCCN6C(=O)[C@H](NC(=O)OC)c6ccccc6)[nH]5)ccc4n3)cc2F)[nH]1)C(C)C [compound 124]	> 9.00
COC(=O)N[C@H](C(=O)N1CCC[C@H]1c1ncc(-c2ccc(-c3ccc4cc(-c5cnc([C@@H]6CCCN6C(=O)[C@H](NC(=O)OC6CCOCC6)c6ccccc6)[nH]5)ccc4n3)cc2F)[nH]1)C(C)C [compound 125]	> 9.00
COC(=O)N[C@H](C(=O)N1CCC[C@H]1c1ncc(-c2ccc3nc(-c4ccc(-c5cnc([C@@H]6CCCN6C(=O)[C@@H](NC(=O)OC)C(C)C)[nH]5)c(F)c4)ccc3c2)[nH]1)C(C)C [compound 126]	> 9.00
COC(=O)N[C@H](C(=O)N1CCC[C@H]1c1ncc(-c2ccc3cc(-c4ccc(-c5cnc([C@@H]6CCCN6C(=O)[C@H](NC(=O)OC)c6ccccc6)[nH]5)c(F)c4)ncc3c2)[nH]1)C1CCOCC1 [compound 127]	> 9.00
COC(=O)N[C@H](C(=O)N1CCC[C@H]1c1ncc(-c2ccc(-c3cc4ccc(-c5cnc([C@@H]6CCCN6C(=O)[C@@H](NC(=O)OC)C6CCOCC6)[nH]5)cc4cn3)cc2F)[nH]1)C(C)C [compound 128]	> 9.00
COC(=O)N[C@H](C(=O)N1CCC[C@H]1c1ncc(-c2ccc(-c3ccc4cc(-c5cnc([C@@H]6CCCN6C(=O)[C@H](NC(=O)OC)c6ccccc6)[nH]5)ccc4n3)c(F)c2)[nH]1)C1CCOCC1 [compound 129]	> 9.00
COC(=O)N[C@H](C(=O)N1CCC[C@H]1c1ncc(-c2cccc(-c3cccc4cc(-c5cnc([C@@H]6CCCN6C(=O)[C@@H](NC(=O)OC)C(C)C)[nH]5)ccc34)c2)[nH]1)C(C)C [compound 130]	> 9.00
COC(=O)N[C@H](C(=O)N1CCC[C@H]1c1ncc(-c2ccc3cc(-c4ccc(-c5cnc([C@@H]6COCCN6C(=O)[C@H](NC(=O)OC)c6ccccc6)[nH]5)cc4)ccc3c2)[nH]1)C(C)C [compound 131]	> 9.00
COC(=O)N[C@H](C(=O)N1CCC[C@H]1c1ncc(-c2ccc(-c3ccc4cc(-c5cnc([C@@H]6COCCN6C(=O)[C@H](NC(=O)OC)c6ccccc6)[nH]5)ccc4c3)cc2)[nH]1)C(C)C [compound 132]	> 9.00
COC(=O)N[C@H](C(=O)N1CCC[C@H]1c1ncc(-c2ccc(-c3ccc4cc(-c5cnc([C@@H]6CCCN6C(=O)[C@@H](NC(=O)OC)C6CCOCC6)[nH]5)ccc4c3)cc2)[nH]1)C1CCOCC1 [compound 133]	> 9.00
COC(=O)N[C@H](C(=O)N1CCC[C@H]1c1ncc(-c2ccc3nc(-c4ccc(-c5cnc([C@@H]6CCCN6C(=O)[C@H](NC(=O)OC)c6ccccc6)[nH]5)cc4F)ccc3c2)[nH]1)C1CCOCC1 [compound 134]	> 9.00
COC(=O)N[C@H](C(=O)N1CCC[C@H]1c1ncc(-c2ccc3nc(-c4ccc(-c5cnc([C@@H]6CCCN6C(=O)[C@H](NC(=O)OC(C)(C)C)c6ccccc6)[nH]5)cc4F)ccc3c2)[nH]1)C1CCOCC1 [compound 135]	> 9.00
COC(=O)N[C@H](C(=O)N1CCC[C@H]1c1ncc(-c2ccc(-c3ccc4cc(-c5cnc([C@@H]6CCCN6C(=O)[C@H](NC(=O)OC(C)(C)C)c6ccccc6)[nH]5)ccc4n3)c(F)c2)[nH]1)C1CCOCC1 [compound 136]	> 9.00
COC(=O)N[C@H](C(=O)N1CCOC[C@H]1c1ncc(-c2ccc(-c3ccc4cc(-c5cnc([C@@H]6CCCN6C(=O)[C@H](NC(=O)OC)c6ccccc6)[nH]5)ccc4c3)cc2)[nH]1)C(C)C [compound 137]	> 9.00
COC(=O)N[C@H](C(=O)N1CCOC[C@H]1c1ncc(-c2ccc3cc(-c4ccc(-c5cnc([C@@H]6CCCN6C(=O)[C@H](NC(=O)OC)c6ccccc6)[nH]5)cc4)ccc3c2)[nH]1)C(C)C [compound 138]	> 9.00

SMILES	pEC50
COC(=O)N[C@H](C(=O)N1CCC[C@H]1c1ncc(-c2ccc3cc(-c4ccc(-c5cnc([C@@H]6COCCN6C(=O)[C@@H](NC(=O)OC)C(C)C)[nH]5)cc4)ccc3c2)[nH]1)C(C)C [compound 139]	> 9.00
COC(=O)N[C@H](C(=O)N1CCC[C@H]1c1ncc(-c2ccc(-c3ccc4cc(-c5cnc([C@@H]6COCCN6C(=O)[C@@H](NC(=O)OC)C(C)C)[nH]5)ccc4c3)cc2)[nH]1)C(C)C [compound 140]	> 9.00
COC(=O)N[C@H](C(=O)N1CCC[C@H]1c1ncc(-c2ccc(-c3ccc4cc(-c5cnc([C@@H]6CCCN6C(=O)[C@@H](NC(=O)OC)C6CCOCC6)[nH]5)ccc4c3)c(F)c2)[nH]1)C1CCOCC1 [compound 141]	> 9.00
CC[C@@H](C)[C@H](NC(=O)OC)C(=O)N1CCC[C@H]1c1ncc(-c2ccc(-c3ccc4cc(-c5cnc([C@@H]6CCCN6C(=O)[C@@H](NC(=O)OC)[C@H](C)CC)[nH]5)ccc4c3)cc2)[nH]1 [compound 142]	> 9.00
COC(=O)N[C@H](C(=O)N1CCC[C@H]1c1ncc(-c2ccc(-c3ccc4cc(-c5cnc([C@@H]6CCCN6C(=O)[C@@H](NC(=O)OC)C6CC6)[nH]5)ccc4c3)cc2)[nH]1)C1CC1 [compound 143]	> 9.00
CNC(=O)N[C@@H](C(=O)N1CCC[C@H]1c1ncc(-c2ccc(-c3cc4ccc(-c5cnc([C@@H]6CCCN6C(=O)[C@@H](NC(=O)OC)C6CCOCC6)[nH]5)cc4cn3)cc2)[nH]1)c1ccccc1 [compound 144]	> 9.00
COC(=O)N[C@H](C(=O)N1CCC[C@H]1c1ncc(-c2ccc3cc(-c4ccc(-c5cnc([C@@H]6CCCN6C(=O)[C@H](NC(=O)NC6CC6)c6ccccc6)[nH]5)cc4)ncc3c2)[nH]1)C1CCOCC1 [compound 145]	> 9.00
COC(=O)N[C@H](C(=O)N1CCC[C@H]1c1ncc(-c2ccc3nc(-c4ccc(-c5cnc([C@@H]6C[C@@H](O)CN6C(=O)[C@@H](NC(=O)OC)C(C)C)[nH]5)cc4)ccc3c2)[nH]1)C(C)C [compound 146]	> 9.00
COC(=O)N[C@H](C(=O)N1C[C@H](O)C[C@H]1c1ncc(-c2ccc(-c3ccc4cc(-c5cnc([C@@H]6CCCN6C(=O)[C@@H](NC(=O)OC)C6CCOCC6)[nH]5)ccc4n3)cc2)[nH]1)C(C)C [compound 147]	> 9.00
COC(=O)N[C@H](C(=O)N1C[C@H](O)C[C@H]1c1ncc(-c2ccc(-c3ccc4cc(-c5cnc([C@@H]6CCCN6C(=O)[C@H](NC(=O)OC)c6ccccc6)[nH]5)ccc4n3)cc2)[nH]1)C(C)C [compound 148]	> 9.00
COC(=O)N[C@H](C(=O)N1C[C@H](O)C[C@H]1c1ncc(-c2ccc(-c3ccc4cc(-c5cnc([C@@H]6CCCN6C(=O)[C@H](NC(=O)OC6CCOCC6)c6ccccc6)[nH]5)ccc4n3)cc2)[nH]1)C(C)C [compound 149]	> 9.00
COC(=O)N[C@H](C(=O)N1CCC[C@H]1c1ncc(-c2ccc(-c3cc4ccc(-c5cnc([C@@H]6CCCN6C(=O)[C@@H](NC(=O)OC)C(C)C)[nH]5)cc4cn3)c(F)c2)[nH]1)C(C)C [compound 150]	> 9.00
COC(=O)N[C@H](C(=O)N1CCC[C@H]1c1ncc(-c2ccc3cc(-c4ccc(-c5cnc([C@@H]6CCCN6C(=O)[C@@H](NC(=O)OC)C6CCOCC6)[nH]5)cc4F)ncc3c2)[nH]1)C(C)C [compound 151]	> 9.00
COC(=O)N[C@H](C(=O)N1CCC[C@H]1c1ncc(-c2ccc3cc(-c4ccc(-c5cnc([C@@H]6CCCN6C(=O)[C@H](NC(=O)OC)c6ccccc6)[nH]5)cc4F)ncc3c2)[nH]1)C(C)C [compound 152]	> 9.00
COC(=O)N[C@H](C(=O)N1CCC[C@H]1c1ncc(-c2ccc3cc(-c4ccc(-c5cnc([C@@H]6CCCN6C(=O)[C@H](NC(=O)OC6CCOCC6)c6ccccc6)[nH]5)cc4F)ncc3c2)[nH]1)C(C)C [compound 153]	> 9.00
COC(=O)N[C@H](C(=O)N1CCC[C@H]1c1ncc(-c2ccc3cc(-c4ccc(-c5cnc([C@@H]6CCCN6C(=O)[C@H](NC(=O)OC6CCOCC6)c6ccccc6)[nH]5)c(F)c4)ncc3c2)[nH]1)C1CCOCC1 [compound 154]	> 9.00
COC(=O)N[C@H](C(=O)N1CCC[C@H]1c1ncc(-c2ccc3cc(-c4ccc(-c5cnc([C@@H]6CCCN6C(=O)[C@H](NC(=O)OC)c6ccccc6)[nH]5)c(F)c4)ncc3c2)[nH]1)C(C)C [compound 155]	> 9.00
COC(=O)N[C@H](C(=O)N1CCC[C@H]1c1ncc(-c2ccc(-c3cc4ccc(-c5cnc([C@@H]6CCCN6C(=O)[C@H](NC(=O)OC6CCOCC6)c6ccccc6)[nH]5)cc4cn3)cc2F)[nH]1)C(C)C [compound 156]	> 9.00
COC(=O)N[C@H](C(=O)N1CCC[C@H]1c1ncc(-c2ccc3cc(-c4ccc5nc([C@@H]6CCCN6C(=O)[C@@H](NC(=O)OC)C(C)C)[nH]c5c4)ccc3c2)[nH]1)C(C)C [compound 174]	> 9.00
COC(=O)N[C@H](C(=O)N1CCC[C@H]1c1ncc(-c2ccc3cc(-c4ccc5nc([C@@H]6CCCN6C(=O)[C@@H](NC(=O)OC)[C@@H](C)O)[nH]c5c4)ccc3c2)[nH]1)[C@@H](C)O [compound 175]	> 9.00

From patent publication US8618151B2, “Inhibitors of HCV NS5A” (Presidio Pharmaceuticals, Inc., priority 2008, dated 2013)
